Measurements published in ChEMBL document CHEMBL2157959, “Reactive metabolites of desipramine and clomipramine: The kinetics of formation and reactivity with DNA” (Bioorg Med Chem, 2012).

Experiments:
[1] = Drug metabolism in water assessed as formation of 3-chloroiminodibenzyl in the presence of HRP and H2O2 UV/Vis spectrophotometry; assay type: physicochemical; conditions: buffer
[2] = Induction of DNA degradation in calf thymus DNA at 2 mM after 2 hrs by PCI extraction-based spectrophotometric analysis in presence of HRP and H2O2; conditions: cattle, 2000 µM
[3] = Drug metabolism in water assessed as formation of reactive intermediate during drug oxidation at 1 mM in the presence of HRP and H2O2 UV/vis spectrophotometry; assay type: physicochemical; conditions: buffer, 1000 µM
[4] = Induction of DNA degradation in calf thymus DNA at 0.5 mM after 1 hr by agarose gel electrophoresis in presence of HRP and H2O2; conditions: cattle, 500 µM
[5] = Drug metabolism in sorensen buffer assessed as formation of reactive intermediate during drug oxidation at 92 uM at pH 7.4 up to 24 mins in the presence of HRP by UV/vis spectrophotometry; assay type: physicochemical; conditions: pH 7.4, 0.4 h
[6] = system: HRP (horseradish peroxidase); experiment: Drug metabolism in sorensen buffer assessed as apparent Km for drug oxidation measured for 20 mins by Michaelis-Menten equation analysis in presence of HRP and H2O2; assay type: physicochemical; conditions: horseradish peroxidase (HRP) with H2O2 in Sorensen buffer
[7] = Drug metabolism in sorensen buffer assessed as formation of reactive intermediate during drug oxidation at 92 uM at pH 7.4 up to 24 mins in the presence of H2O2 by UV/vis spectrophotometry; assay type: physicochemical; conditions: pH 7.4, 0.4 h
[8] = Drug metabolism in sorensen buffer assessed as iminodibenzyl formation at pH 7.4 in the presence of HRP and H2O2 by GC/MS analysis; assay type: physicochemical
[9] = Drug metabolism in sorensen buffer assessed as formation of reactive intermediate during drug oxidation at 92 uM at pH 7.4 up to 24 mins in the presence of HRP and H2O2 by UV/vis spectrophotometry; assay type: physicochemical; conditions: pH 7.4, 0.4 h

Row | Drug metabolism [5] | Km at 20 min [6] [mM] | Drug metabolism [7] | Drug metabolism [8] | Drug metabolism [9] | Structure (SMILES) | Drug metabolism [1] | Activity [2] | Drug metabolism [3] | Activity [4]
1 | – | – | – | – | – | CN(C)CCCN1c2ccccc2CCc2ccc(Cl)cc21.Cl [CLOMIPRAMINE HYDROCHLORIDE] | Active | Toxic | Active | Toxic
2 | Not Active | 4.4 | Not Active | Active | Active | CNCCCN1c2ccccc2CCc2ccccc21.Cl [DESIPRAMINE HYDROCHLORIDE] | – | Toxic | – | Toxic
